The values below come from patent US12083093B2, “Composition for preventing or treating cellular senescence-related diseases comprising salinomycin as effective component” (RESEARCH COOPERATION FOUNDATION OF YEUNGNAM UNIVERSITY, priority 2018, dated 2024).

For experiment [1], the system named is premature senescent human fibroblasts induced by doxorubicin (HDF). Kind of experiment: SAβG activity staining, doxorubicin-induced premature senescent human fibroblasts. Format: cell-based. As to conditions: 100 nM, 4 days; compared to DMSO-treated group; FIG. 1A, 1B. The protocol: (§1) Each cell was treated in a serum-free culture solution containing doxorubicin (0.5 μM) for 4 hours. After washing the cells with a serum-free culture solution, the cells were cultured for 4 days in a culture solution containing 10% FBS, and then cellular aging was confirmed by measuring the level of senescence by staining with senescence-associated beta galactosidase.
(§2) After each sample was dissolved in DMSO, young cells, replicative senescent cells and senescent cells in which premature aging was induced by treating with doxorubicin were treated with 100 nM salinomycin, 100 nM rapamycin, 100 nM ABT263. After incubation for 4 days in a 37° C., 5% CO2 incubator, the degree of cell survival was confirmed by CCK-8 analysis, the degree of cellular aging was confirmed by senescence-associated β-galactosidase (SAβG) staining, p53 and p16 protein expression analysis.
(§3) The cells were washed with 1× phosphate buffer solution, and fixed with a phosphate buffer solution containing 3.7% (v/v) paraformaldehyde. After adding 1 mg/ml 5-bromo-4-chloro-3-indolyl-β-D-galactoside, 40 mM citric acid-sodium phosphate (pH 6.0), 5 mM potassium ferricyanide, 5 mM potassium ferrocyanide, 150 mM NaCl, and 2 mM MgCl2 solution, it was reacted at 37° C. for 18 hours. It was stained with eosin as a control stain and cells stained blue in the cytoplasm were identified using an optical microscope. […]

For experiment [2], the system named is replicative senescent human fibroblasts (HDF). Kind of experiment: SAβG activity staining, replicative senescent human fibroblasts. It counts as cell-based. As to conditions: increasing concentration of salinomycin, senescent cells; FIG. 2A, 2B. As to the method:
After dispensing 2×10^5 cells in a 100 mm culture dish, they were cultured in a 37° C., 5% CO2 incubator. When the cells grew to 80-90% in the culture dish, the cells were removed by treatment with trypsin-EDTA, and the number of cells was measured, and the cell population doubling time (PDT) was measured.
By successively subculturing the cells in the same process as described above, replication aging was induced. PDT of young fibroblasts was 36 hours, PDT of replicative senescent fibroblasts was 12 days, PDT of young vascular endothelial cells was 24 hours, and PDT of replicative senescent vascular endothelial cells was 7 days.
as §2
The cells were washed with 1× phosphate buffer solution, and fixed with a phosphate buffer solution containing 3.7% (v/v) paraformaldehyde. […]

The subject of experiment [3] is premature senescent vascular endothelial cells (HUVEC) by doxorubicin. The experiment can be described thus: CCK-8 cell survival, doxorubicin-induced premature senescent HUVEC. It counts as cell-based, human. As to conditions: 100 nM, 4 days; compared to DMSO-treated group; FIG. 3C. As to the method: as §1, §2
Young cells (1×10^3 cells/well) or senescent cells (2×10^3 cells/well) were dispensed into a 96-well plate, and cultured overnight in a 37° C., 5% CO2 incubator. Salinomycin, ABT263 and rapamycin were treated at each concentration, and then incubated for 4 days in a 37° C., 5% CO2 incubator. […] Then, the absorbance was measured at 450 nm using a Microplate reader.
The degree of cell survival was expressed as a relative value for the absorbance of the control group treated with only DMSO as 100%. […]

For experiment [4], the system named is premature senescent renal tubular cells (HK2) by doxorubicin. Kind of experiment: SAβG activity staining, doxorubicin-induced premature senescent HK2 cells. It counts as cell-based, human. The settings on record: 100 nM, 4 days; compared to DMSO-treated group; FIG. 6A-6C. The protocol: as §1, §2, §3
Experiment [5] relates to peritoneal fibrosis induced by chlorhexidine gluconate (CHG). Kind of experiment: Peritoneal fibrosis induced by chlorhexidine gluconate (CHG) in mice. Format: in vivo, C57BL/6J mice. As to conditions: compared to DMSO group, FIG. 9C, 9D. As to the method: Animal experiments were conducted with the approval of the Animal Experimental Ethics Committee of Yeungnam University College of Medicine (YUMC-AEC2018-033). Peritoneal fibrosis mice experiments were performed using a model of peritoneal fibrosis induced by chlorhexidine gluconate (CHG) (Yoshio Y et al., Kidney international. 2004).
From the 9th day, 2.5 μl of 10 mM salinomycin (Sal group) or 2.5 μl of DMSO (DMSO group) was diluted in 100 μl phosphate buffer solution and intraperitoneally injected at intervals of 2 days.
As a negative control (NT group), 100 μl of a 15% ethanol phosphate buffer solution was injected intraperitoneally instead of a 0.1% CHG solution. On the 20th day, the mice were sacrificed, the peritoneal tissue was excised, and the tissue was fixed in 4% paraformaldehyde solution.
The tissue fixed in 10% formalin solution was embedded with paraffin and cut into 4 μm to prepare a tissue sample. After removing paraffin from the tissue sample, hematoxylin-eosin staining, trichrome staining, and PAS staining were performed.
The degree of fibrosis was measured by analyzing the degree of collagen staining using the i-Solution™ software program (IMT Inc., Canada) after trichrome staining and the degree of cell senescence in tissue samples was investigated by staining lipofuscin with Sudan black B (Viegas M S, et al., European journal of histochemistry: EJH. 2007). […]

For the compound `CC[C@@H](C(=O)[C@@H](C)[C@@H](O)[C@H](C)[C@@H]1O[C@@H]([C@@H](CC)C(=O)O)CC[C@@H]1C)[C@H]1O[C@]2(C=C[C@@H](O)[C@]3(CC[C@@](C)([C@H]4CC[C@](O)(CC)[C@H](C)O4)O3)O2)[C@H](C)C[C@@H]1C` [salinomycin], the SAβG activity entry is recorded as “significantly reduced” in experiment [1] and “decreased in senescent cells in a concentration-dependent manner” in experiment [2]. Also, the “cell survival (CCK-8)” value in experiment [3] is recorded as “no difference”. Further, in experiment [4], the SaβG activity result was “no change”. The “thickness of the peritoneal mesothelial cell layer” value in experiment [5] (2.5 μl of 10 mM salinomycin in 100 μl phosphate buffer i.p. at 2-day intervals from 9th day) is listed as “significantly reduced”. In addition, in experiment [5] (i.p. at 2-day intervals from 9th day), the “degree of peritoneal fibrosis” value is recorded as “decreased”.
